From patent publication US20200386748A1, “COMPOSITIONS AND METHODS FOR ANALYTE DETECTION USING BIOLUMINESCENCE” (Promega Corporation, priority 2019, published 2020)
Residues, ends and D or L forms follow the SMILES beside them. No end group written: not given here. *: point of attachment. X1 = O=C(CCOCCOCCOCOCCOCCOCCOCCC(=O)*)ON1C(=O)CC(S(=O)(=O)O)C1=O; X3 = O=C(CCOCCOCCOCCOCCOCCOCCC(=O)*)ON1C(=O)CC(S(=O)(=O)O)C1=O; X2 = O=C(CCOCCOCCOCCC(=O)*)ON1C(=O)CC(S(=O)(=O)O)C1=O

What was measured:
[1] = test system: rhIL-6; test: Solution-based IL-6 immunoassay with antibodies directly labeled with reactive peptides; set-up: species or system human; conditions: for IL-6 assay result with LgTrip 5146: 1 μM LgTrip 5146 instead of LgTrip 3546; for signal to background: IL-6 titration; for signal to background / signal in the absence of rhIL-6: paired with HW-1053, 1 μM LgTrip 3546; for light output in the presence of high rhIL-6 concentrations: SmTrip9 label on 5IL6 antibody paired with HW-1053-labeled 505E antibody, 1 μM LgTrip 3546
Procedure: The basic principle of homogeneous NanoLuc tripartite immunoassays with directly-labeled antibodies is depicted in FIG. 78.
SmTrip9 variants such as Pep693 (SEQ ID NO: 20), Pep895 (SEQ ID NO: 24), and Pep929 (SEQ ID NO: 25) or SmTrip10 variants such as Pep691 (SEQ ID NO: 18) and Pep692 (SEQ ID NO: 19) were individually dissolved in DMF to 5 mM. […] Subsequently, these antibodies were combined with 20× molar excess of a reactive peptide for 1 hr at 4° C. while shaking in order to covalently label the proteins. […] SmTrip9 reactive peptides were used to label antibody 5IL6 while SmTrip10 reactive peptides were used to label antibody 505E. The denaturing SDS-PAGE gel shown in FIG. 79 was used to characterize the conjugated antibodies.
FIGS. 80-82 display raw RLU dose response curves for antibody conjugates in the presence of a rhIL-6 titration series. […] After addition of N205, luminescence signal was measured. […] Data in FIG. 81 were generated using 62.5 ng/ml of SmTrip9-labeled (HW-0984) 5IL6 antibody and 60 ng/ml of SmTrip10-labeled (HW-1053) 505E antibody. Data in FIG. 82 were generated using the following concentrations of antibody conjugates: 15 ng/ml HW-1043 (SEQ ID NO: 24)+30 ng/ml HW-1053 (SEQ ID NO: 18), 15 ng/ml HW-1052 (SEQ ID NO: 25)+15 ng/ml HW-1053, (SEQ ID NO: 18) 15 ng/ml HW-1055 (SEQ ID NO: 25)+15 ng/ml HW-1053 (SEQ ID NO: 18), 60 ng/ml HW-1042 (SEQ ID NO: 20)+8 ng/ml HW-1053 (SEQ ID NO: 18), and 60 ng/ml HW-1050 (SEQ ID NO: 27)+8 ng/ml HW-1053 (SEQ ID NO: 18).

[2] = target: T1, purified NANOLUC enzyme (Oplophorus gracilirostris, UniProt Q9GV45, A31E/A60N/A81I/F95D/I117V/K70R/L54V/L99Q/M102K/N193R/P142E/Q151K/Q38R/Q45L/V71I/Y165I); assay type: biochemical; conditions: stored in organic solvent at elevated temperature (60° C.)
T1 construct: purchased Promega

[3] = target: LgTrip 3546; test: titration of the single labeled antibody with 1 µM LgTrip 3546 and N205, no IL-6 (FIG. 83)
[4] = Protein buffer formulations for proteins dried on Whatman 903 paper; conditions: buffers 2 and 5
Procedure: For these experiments, Whatman 903 protein saver spot cards were used with the following protein buffer formulations: • Protein buffer 1: 20 mM Na3PO4, 5% w/v BSA, 0.25% v/v tween 20, 10% w/v sucrose • Protein buffer 2: 20 mM Na3PO4, 0.25% v/v tween 20, 10% w/v sucrose • Protein buffer 3: 20 mM Na3PO4, 5% w/v BSA, 0.25% v/v tween 20 • Protein buffer 4: 20 mM Na3PO4, 5% w/v BSA, 0.25% v/v tween 20, 2.5% pullulan • Protein buffer 5: 20 mM Na3PO4, 0.25% v/v tween 20, 2.5% pullulan.
For NanoLuc, a 1000× stock solution was diluted 1:1000 in protein buffer (1 mL). For a 1.068 nM stock solution, 3 μl was diluted into 297 μl of protein buffer. About 5 μL of each concentration was spotted on the filter paper. For LgBiT-1672-11s-His, 5 μL of 1.068 nM protein per spot was used. About 104, was diluted in 990 μL protein buffer for a 2e^−7M stock. About 100 μL of a 100 nM protein solution was then prepared, and about 10 μL stock was diluted into 990 μL protein buffer for 1 nM stock. About 5 μL of each concentration was spotted onto filter paper. For LgTrip 3546, about 5 μL of 1.068 nM protein was used per spot. About 1.1 of LgBiT-1672 stock was diluted into 998.94 μL protein buffer. About 3 μL stock was diluted into 297 μL protein buffer. About 54, of each concentration was spotted onto filter paper. After all protein was added, the samples were dried at 30° C. for about 1 hour. […]

Chain of LgTrip 3546 (chain, as listed by the source): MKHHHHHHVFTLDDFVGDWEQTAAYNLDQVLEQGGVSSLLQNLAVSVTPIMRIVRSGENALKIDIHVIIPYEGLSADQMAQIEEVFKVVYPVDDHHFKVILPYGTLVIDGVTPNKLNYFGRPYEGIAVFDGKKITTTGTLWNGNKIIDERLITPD

RLU [3] [RLU] | Molecule | signal in the absence of rhIL-6 [1] | other results
 | CC[C@H](C)[C@H](NC(=O)[C@@H](NC(=O)[C@@H](NC(=O)[C@@H](NC(=O)[C@H](Cc1ccccc1)NC(=O)[C@H](CC(C)C)NC(=O)[C@H](CC(C)C)NC(=O)[C@H](CCCNC(=N)N)NC(=O)CNC(=O)CCOCCOCCOCCOCOCCOCCOCCC(=O)ON1C(=O)CC(S(=O)(=O)O)C1=O)[C@@H](C)O)C(C)C)[C@@H](C)O)C(=O)N[C@@H](CCC(=O)O)C(=O)N[C@@H](CCCNC(=N)N)C(=O)N[C@@H](Cc1ccc(O)cc1)C(=O)N[C@@H](CCCNC(=N)N)C(N)=O (some centres unmarked) [HW-1043, SulfoSE-PEG6-SmTrip9 Pep895] (X1-GRLLFTVTIERYR-NH2) | low light output in the absence of the analyte | IL-6 assay result with LgTrip 5146 [1]: results similar to LgTrip 3546; signal to background [1]: best signal to background; light output in the presence of high rhIL-6 concentrations [1]: ~10^6 RLUs
 | CC[C@H](C)[C@H](NC(=O)[C@@H](NC(=O)[C@@H](NC(=O)[C@H](CCCNC(=N)N)NC(=O)[C@H](Cc1ccccc1)NC(=O)[C@H](CC(C)C)NC(=O)[C@H](CCSC)NC(=O)[C@H](CCCNC(=N)N)NC(=O)[C@H](CCCNC(=N)N)NC(=O)CCOCCOCCOCCOCCOCCOCCC(=O)ON1C(=O)CC(S(=O)(=O)O)C1=O)C(C)C)[C@@H](C)O)C(=O)N[C@@H](CCC(N)=O)C(=O)N[C@@H](CCCNC(=N)N)C(=O)N[C@@H](Cc1c[nH]c2ccccc12)C(=O)N[C@@H](CCCNC(=N)N)C(=O)O (some centres unmarked) [HW-1052, SulfoSE-PEG6-SmTrip9 Pep929] (X3-RRMLFRVTIQRWR-OH) | high signal even in the absence of rhIL-6 | 
 | CC[C@H](C)[C@H](NC(=O)[C@@H](NC(=O)[C@@H](NC(=O)[C@H](CCCNC(=N)N)NC(=O)[C@H](Cc1ccccc1)NC(=O)[C@H](CC(C)C)NC(=O)[C@H](CCSC)NC(=O)[C@H](CCCNC(=N)N)NC(=O)[C@H](CCCNC(=N)N)NC(=O)CCOCCOCCOCCC(=O)ON1C(=O)CC(S(=O)(=O)O)C1=O)C(C)C)[C@@H](C)O)C(=O)N[C@@H](CCC(N)=O)C(=O)N[C@@H](CCCNC(=N)N)C(=O)N[C@@H](Cc1c[nH]c2ccccc12)C(=O)N[C@@H](CCCNC(=N)N)C(=O)O (some centres unmarked) [HW-1055, SulfoSE-PEG3-SmTrip9 Pep929] (X2-RRMLFRVTIQRWR-OH) | high signal even in the absence of rhIL-6 | 
 | O=c1c(Cc2ccco2)nc2c(Cc3ccccc3)[nH]c(-c3ccccc3)cn1-2 [furimazine, 8-benzyl-2-(furan-2-ylmethyl)-6-phenylimidazo[1,2-a]pyrazin-3(7H)-one] |  | time to loss of all activity [2]: about 10 days
 | SulfoSE-PEG3-SmTrip9 Pep938-SA (GRMLFRVTINSWRC; also: SulfoSE-PEG3 label, position not given here) [HW-1050] | low light output in the absence of the analyte | IL-6 assay result with LgTrip 5146 [1]: results similar to LgTrip 3546; signal to background [1]: best signal to background; light output in the presence of high rhIL-6 concentrations [1]: ~10^6 RLUs
100 | VSGWRLFRRIS (antibody, not shown: large carriers; small tags and cut ends, also: peptide labeled on anti-IL-6 antibody 505E via SulfoSE-PEG3 linker) [anti-IL-6 antibody 505E directly labeled with HW-0977 (SulfoSE-PEG3-SmTrip10 Pep691)] |  | 
 | NanoLuc: bioluminescent polypeptide of SEQ ID NO: 5, NanoLuc luciferase (Promega) (protein) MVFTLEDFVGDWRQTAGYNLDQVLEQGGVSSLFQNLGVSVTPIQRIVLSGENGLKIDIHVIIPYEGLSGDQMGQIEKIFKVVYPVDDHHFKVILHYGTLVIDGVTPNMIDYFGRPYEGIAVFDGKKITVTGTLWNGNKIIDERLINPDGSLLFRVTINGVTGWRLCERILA |  | change of RLU in protein buffers without BSA [4]: largest decreases in RLU
100 | GRLLFVVVIERYR (antibody, not shown: large carriers; small tags and cut ends, not fully specified) [anti-IL-6 antibody 5IL6 directly labeled with HW-1010 (SulfoSE-PEG3-SmTrip9 Pep895)] |  | 
100 | RRMLFRVTIQRWR (antibody, not shown: large carriers; small tags and cut ends, not fully specified) [anti-IL-6 antibody 5IL6 directly labeled with HW-1052 (SulfoSE-PEG6-SmTrip9 Pep929)] |  | 
100 | GRMLFRVTINSWR (antibody, not shown: large carriers; small tags and cut ends, not fully specified) [anti-IL-6 antibody 5IL6 directly labeled with HW-1042 (SulfoSE-PEG6-SmTrip9 Pep693)] |  | 
> 1000 | GRMLFRVTINSWR (antibody, not shown: large carriers; small tags and cut ends, not fully specified) [anti-IL-6 antibody 5IL6 directly labeled with HW-0984 (SulfoSE-PEG3-SmTrip9 Pep693)] |  | 
